Read-outs that look alike come from different tables or passages of the source.
Assays:
[1] = test system: heregulin-mediated tyrosine phosphorylation in MDA-MB-453 cells; experiment: Heregulin-dependent tyrosine phosphorylation assay, MDA-MB-453 cells, western blot; assay type: cell-based; conditions: Homo sapiens, 2 hours compound, 10 ng/mL heregulin 5 minutes, read-out: Heregulin-Medidated Tyrosine Phosphorylation IC50
Experimental: Proteins in the lysate were separated by polyacrylamide gel electrophoresis and electrophoretically transferred to nitrocellulose. […] Band intensities were determined with a laser densitometer.

[2] = test system: VEGF secretion from A431 cells; conditions: for VEGF secretion: 48 hours
[3] = test system: human epidermoid carcinoma, A431; experiment: In vivo tumor inhibition assay, A431 tumor fragments s.c. in nude mice; conditions: for Tumor Growth Delay / Tumor Growth Inhibition: 15 consecutive days; for Tumor Growth Delay: isethionate salt in water, T-C to 750 mg; for Tumor Growth Inhibition: growth delay divided by number of treatments times 100%
Experimental: The human epidermoid carcinoma, A431, was propagated in vivo by serial transplantation. This tumor model was selected for these studies because of its known dependence upon the EGF receptor for growth and its early stage responsiveness to monoclonal antibody therapy in vivo. In this experiment nude mice weighing 18-22 grams were implanted subcutaneously with 30 mg A431 tumor fragments in the region of the right axilla on Day 0. Tumors were allowed to grow to a mass of 100 to 150 mg, at which time the tumor bearing animals were randomized and distributed into treatment cages. […] The isethionate salts can be prepared by titrating the compounds into solution with 2 equivalents of isethionic acid. Treatment was based on average group weight. The control animals received water. Evaluation of the experiment was based on tumor growth delay, T-C, defined as the difference, in days, for the treated and control tumors to reach an evaluation size of 750 mg. Data can also be represented as the percentage of tumor growth inhibition, defined as the tumor growth delay divided by the number of treatments times 100%. […] Statistical analysis was performed using JMP for Macintosh (SAS Institute, Inc., Cary, N.C. ).

In the case of C=CC(=O)Nc1cc2c(Nc3ccc(F)c(Cl)c3)ncnc2cc1OCCCN1CCOCC1 [compound 1, N-[4-(3-chloro-4-fluoro-phenylamino)-7-(3-morpholin-4-yl-propoxy)-quinazolin-6-yl]-acrylamide], the IC50 [1] is reported as 9 nM, the VEGF secretion ([2]; 10 ng/mL EGF stimulated, 0.1 μM compound) is reported as 1490 ± 170 pg/10^5 cells ± SE and the VEGF secretion ([2]; 10 ng/mL EGF stimulated, 0.5 μM compound) is reported as 560 ± 29 pg/10^5 cells ± SE. For the same compound, the “effect on EGF- or TGF-alpha stimulated VEGF secretion” value ([2]; 0.5 μM, in words) was “blocked”, the VEGF secretion ([2]; TGF-alpha stimulated, 0.1 μM compound) was 1976 ± 37 pg/10^5 cells ± SE and the VEGF secretion ([2]; TGF-alpha stimulated, 0.5 μM compound) was 766 ± 75 pg/10^5 cells ± SE. For the same compound, the “effect on the basal level of VEGF secretion from A431 cells” value ([2]; basal, in words) was “appeared to inhibit”, the VEGF secretion ([2]; serum free media (basal), 0.1 μM compound) was 280 ± 41 pg/10^5 cells ± SE and the VEGF secretion ([2]; serum free media (basal), 0.5 μM compound) was 250 ± 46 pg/10^5 cells ± SE. For the same compound, the “Tumor Growth Delay” value ([3]; 5 mg/kg perorally) was 53.2 days, the “Tumor Growth Inhibition” value ([3]; 5 mg/kg perorally) was 355% and the “Tumor Growth Delay” value ([3]; 18 mg/kg perorally) was 41.3 days. For the same compound, the “Tumor Growth Inhibition” value ([3]; 18 mg/kg perorally) was 275% and the “antitumor response T-C” value ([3]; A431 tumors in vivo, dose not given) was 53 days.

From patent US6344455B1 (Warner-Lambert Company, priority 1998, dated 2002)
